We go through three molecules from ChEMBL document CHEMBL2062402, “Discovery of HDAC Inhibitors That Lack an Active Site Zn(2+)-Binding Functional Group” (ACS Med Chem Lett, 2012).

Where a SMILES comes first, the peptide text is derived from it. [ ]: non-standard residue; d: D form. β3hL = CC(C)C[C@H](N)CC(=O)O; Nva = CCC[C@H](N)C(=O)O Where only a bound is given, the exact number is not on record here.

The test system of one data set is HeLa. The data set is described as follows: cells. The data set is classed as functional. The settings on record: Homo sapiens, 72 h.
Data set [1] addresses T1, Histone deacetylase 3/Nuclear receptor corepressor 2 (HDAC3/NCoR2) (Homo sapiens) (UniProt O15379+Q9Y618). As to the kind of experiment: Ratio of IC50 for valproic acid to compound for recombinant HDAC3/NCoR2 using Ac-Lys(Ac)-AMC as substrate after 30 mins by fluorescence analysis. The data set is classed as protein-complex assay.
The target in data set [2] is Histone deacetylase (Homo sapiens) (UniProt Q13547+O15379+Q9UBN7+Q92769+Q9UQL6+Q8WUI4+Q9BY41+Q96DB2+P56524+Q9UKV0+Q969S8). As to the kind of experiment: Inhibition of HDAC in human Jurkat cells assessed as increase in acetylated histone H3 after 24 hrs by Western blot analysis. The data set is classed as cell-based. For orientation: In western blotting, separated proteins are transferred to a membrane and probed.

Data set [3] concerns the target T1, Histone deacetylase 3/Nuclear receptor corepressor 2 (HDAC3/NCoR2) (Homo sapiens). As to the kind of experiment: Inhibition of recombinant HDAC3/NCoR2 at 1 uM. The data set is classed as protein-complex assay.
The test system of a further data set is MCF7. As to the kind of experiment: cells. The data set is classed as functional. The conditions noted are these: Homo sapiens, MCF7, 72 h.
In data set [4] the target is T2, Histone deacetylase 2 (Homo sapiens, UniProt Q92769). As to the kind of experiment: Ratio of IC50 for valproic acid to compound for recombinant HDAC2 using Ac-Lys(Ac)-AMC as substrate after 30 mins by fluorescence analysis.
T2 sequence (Q92769 whole entry): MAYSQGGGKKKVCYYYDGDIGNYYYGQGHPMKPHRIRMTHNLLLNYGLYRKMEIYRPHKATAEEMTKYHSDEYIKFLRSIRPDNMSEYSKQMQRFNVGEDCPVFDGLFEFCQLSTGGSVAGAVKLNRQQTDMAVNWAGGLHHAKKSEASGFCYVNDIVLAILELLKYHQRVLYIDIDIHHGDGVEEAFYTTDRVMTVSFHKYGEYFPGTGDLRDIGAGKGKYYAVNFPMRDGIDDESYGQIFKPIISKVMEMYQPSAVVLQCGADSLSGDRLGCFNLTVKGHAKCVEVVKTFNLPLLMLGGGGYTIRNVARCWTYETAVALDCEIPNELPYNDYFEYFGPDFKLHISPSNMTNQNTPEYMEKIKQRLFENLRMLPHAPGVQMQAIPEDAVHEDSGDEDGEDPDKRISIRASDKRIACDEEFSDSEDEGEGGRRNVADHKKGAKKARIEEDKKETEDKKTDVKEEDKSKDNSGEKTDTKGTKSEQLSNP
Data set [5] addresses T3, Histone deacetylase 3/Nuclear receptor corepressor 2 (HDAC3/NCoR2) (Homo sapiens, UniProt O15379). The data set is described as follows: Inhibition of recombinant HDAC3/NCoR2 using Ac-Lys(Ac)-AMC as substrate after 30 mins by fluorescence analysis. Format: protein-complex assay.
Data set [6] is described as follows: Ratio of IC50 for valproic acid to compound for recombinant using Ac-Lys(Ac)-AMC as substrate after 30 mins by fluorescence analysis. The settings on record: Homo sapiens.
A further data set relates to Jurkat. The data set is described as follows: cells. Format: functional. The conditions noted are these: Homo sapiens, 72 h.
Data set [7] concerns the target T3, Histone deacetylase 3/Nuclear receptor corepressor 2 (HDAC3/NCoR2). As to the kind of experiment: Competitive inhibition of HDAC3/NCoR2 using Ac-Lys(Ac)-AMC as substrate by Lineweaver-Burk plot analysis. Format: protein-complex assay.
Data set [8] deals with T4, Histone deacetylase 1 (Homo sapiens, UniProt Q13547). As to the kind of experiment: Ratio of IC50 for valproic acid to compound for recombinant HDAC1 using Ac-Lys(Ac)-AMC as substrate after 30 mins by fluorescence analysis.
T4 sequence (Q13547 whole entry): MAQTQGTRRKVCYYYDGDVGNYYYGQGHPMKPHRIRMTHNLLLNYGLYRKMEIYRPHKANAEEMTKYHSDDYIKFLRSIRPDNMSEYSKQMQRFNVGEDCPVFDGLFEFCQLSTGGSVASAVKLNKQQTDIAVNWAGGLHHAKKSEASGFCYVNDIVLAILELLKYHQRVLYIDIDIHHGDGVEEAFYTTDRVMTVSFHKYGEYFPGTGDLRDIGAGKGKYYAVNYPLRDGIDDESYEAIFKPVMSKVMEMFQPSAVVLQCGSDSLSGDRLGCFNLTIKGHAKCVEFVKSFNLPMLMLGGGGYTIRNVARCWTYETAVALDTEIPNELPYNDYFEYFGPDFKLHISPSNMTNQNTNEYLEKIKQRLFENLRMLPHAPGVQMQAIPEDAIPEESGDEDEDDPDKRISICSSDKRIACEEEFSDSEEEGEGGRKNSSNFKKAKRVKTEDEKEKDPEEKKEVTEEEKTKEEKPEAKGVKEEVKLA
In data set [9] the target is T4, Histone deacetylase 1. The data set is described as follows: Competitive inhibition of HDAC1 using Ac-Lys(Ac)-AMC as substrate by Lineweaver-Burk plot analysis.
In a further data set the test system is HL-60. As to the kind of experiment: cells. Format: functional. The settings on record: Homo sapiens, HL-60, 72 h.
Data set [10] deals with T2, Histone deacetylase 2. The data set is described as follows: Inhibition of recombinant HDAC2 using Ac-Lys(Ac)-AMC as substrate after 30 mins by fluorescence analysis.
The target in data set [11] is T5, Protein deacetylase HDAC6 (Homo sapiens) (UniProt Q9UBN7).
T5 sequence (whole entry): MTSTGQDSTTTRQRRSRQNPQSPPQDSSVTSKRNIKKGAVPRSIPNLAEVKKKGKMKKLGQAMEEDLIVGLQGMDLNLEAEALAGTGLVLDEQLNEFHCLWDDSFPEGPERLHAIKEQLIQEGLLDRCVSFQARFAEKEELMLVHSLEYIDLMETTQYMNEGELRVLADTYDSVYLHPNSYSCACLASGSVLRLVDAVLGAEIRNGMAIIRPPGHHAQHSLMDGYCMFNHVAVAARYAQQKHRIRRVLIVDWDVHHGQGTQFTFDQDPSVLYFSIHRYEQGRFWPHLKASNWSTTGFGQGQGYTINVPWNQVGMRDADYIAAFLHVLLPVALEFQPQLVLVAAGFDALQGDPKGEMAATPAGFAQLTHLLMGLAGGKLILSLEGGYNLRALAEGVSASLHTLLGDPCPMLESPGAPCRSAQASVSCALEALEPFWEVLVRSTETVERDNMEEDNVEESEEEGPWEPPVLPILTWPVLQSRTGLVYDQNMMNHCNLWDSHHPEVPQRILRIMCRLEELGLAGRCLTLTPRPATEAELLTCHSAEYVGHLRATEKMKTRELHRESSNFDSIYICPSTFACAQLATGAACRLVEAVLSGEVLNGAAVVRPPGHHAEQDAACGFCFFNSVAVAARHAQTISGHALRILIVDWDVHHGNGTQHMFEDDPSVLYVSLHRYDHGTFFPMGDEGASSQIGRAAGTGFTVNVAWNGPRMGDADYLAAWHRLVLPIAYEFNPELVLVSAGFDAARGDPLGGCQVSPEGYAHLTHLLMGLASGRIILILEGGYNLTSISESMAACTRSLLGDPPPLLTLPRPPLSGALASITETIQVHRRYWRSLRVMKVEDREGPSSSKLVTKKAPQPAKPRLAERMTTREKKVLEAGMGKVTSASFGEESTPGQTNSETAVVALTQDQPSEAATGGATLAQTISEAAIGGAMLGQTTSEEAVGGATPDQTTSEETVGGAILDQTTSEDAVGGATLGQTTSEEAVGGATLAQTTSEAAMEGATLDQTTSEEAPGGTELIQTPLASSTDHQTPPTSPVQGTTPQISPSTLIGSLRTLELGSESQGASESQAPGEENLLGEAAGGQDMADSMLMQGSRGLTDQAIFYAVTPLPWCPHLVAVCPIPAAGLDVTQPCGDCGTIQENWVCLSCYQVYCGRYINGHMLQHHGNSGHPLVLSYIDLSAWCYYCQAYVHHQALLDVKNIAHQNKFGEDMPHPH
As to the kind of experiment: Inhibition of recombinant HDAC6 using Ac-Lys(Ac)-AMC as substrate at 20 uM after 30 mins by fluorescence analysis.

The target in data set [12] is T6, Protein deacetylase HDAC6 (Homo sapiens, UniProt Q9UBN7).
T6 sequence (Q9UBN7 whole entry): T5 sequence (whole entry)
The data set is described as follows: Inhibition of recombinant HDAC6 using Ac-Lys(Ac)-AMC as substrate after 30 mins by fluorescence analysis.

Another data set can be described thus: in vitro. The settings on record: human, HEK293 cells.
Data set [13] concerns the target T4, Histone deacetylase 1. As to the kind of experiment: Inhibition of recombinant HDAC1 using Ac-Lys(Ac)-AMC as substrate after 30 mins by fluorescence analysis.
Data set [14] deals with T2, Histone deacetylase 2. The data set is described as follows: Competitive inhibition of HDAC2 using Ac-Lys(Ac)-AMC as substrate by Lineweaver-Burk plot analysis.
The nature of data set [15]: Growth inhibition of human HEK293 cells at 100 uM after 72 hrs by XTT assay. The data set is classed as cell-based. The settings on record: read-out: GI. (Tetrazolium assays rely on reduction of a dye to a coloured formazan, in cell work by metabolically active cells.)

T3 sequence (O15379 whole entry): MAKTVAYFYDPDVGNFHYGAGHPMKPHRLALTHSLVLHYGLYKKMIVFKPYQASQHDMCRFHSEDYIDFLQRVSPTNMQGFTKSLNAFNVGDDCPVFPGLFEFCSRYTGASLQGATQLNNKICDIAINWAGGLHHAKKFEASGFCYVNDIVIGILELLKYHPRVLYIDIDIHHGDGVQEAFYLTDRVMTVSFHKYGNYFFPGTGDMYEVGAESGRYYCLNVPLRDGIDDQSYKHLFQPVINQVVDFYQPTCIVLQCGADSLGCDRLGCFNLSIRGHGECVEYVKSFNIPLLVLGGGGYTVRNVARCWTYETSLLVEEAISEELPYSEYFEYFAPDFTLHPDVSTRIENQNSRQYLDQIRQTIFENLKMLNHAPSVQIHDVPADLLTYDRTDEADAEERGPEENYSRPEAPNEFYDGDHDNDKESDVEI
T3 sequence (Q9Y618 whole entry, further chain): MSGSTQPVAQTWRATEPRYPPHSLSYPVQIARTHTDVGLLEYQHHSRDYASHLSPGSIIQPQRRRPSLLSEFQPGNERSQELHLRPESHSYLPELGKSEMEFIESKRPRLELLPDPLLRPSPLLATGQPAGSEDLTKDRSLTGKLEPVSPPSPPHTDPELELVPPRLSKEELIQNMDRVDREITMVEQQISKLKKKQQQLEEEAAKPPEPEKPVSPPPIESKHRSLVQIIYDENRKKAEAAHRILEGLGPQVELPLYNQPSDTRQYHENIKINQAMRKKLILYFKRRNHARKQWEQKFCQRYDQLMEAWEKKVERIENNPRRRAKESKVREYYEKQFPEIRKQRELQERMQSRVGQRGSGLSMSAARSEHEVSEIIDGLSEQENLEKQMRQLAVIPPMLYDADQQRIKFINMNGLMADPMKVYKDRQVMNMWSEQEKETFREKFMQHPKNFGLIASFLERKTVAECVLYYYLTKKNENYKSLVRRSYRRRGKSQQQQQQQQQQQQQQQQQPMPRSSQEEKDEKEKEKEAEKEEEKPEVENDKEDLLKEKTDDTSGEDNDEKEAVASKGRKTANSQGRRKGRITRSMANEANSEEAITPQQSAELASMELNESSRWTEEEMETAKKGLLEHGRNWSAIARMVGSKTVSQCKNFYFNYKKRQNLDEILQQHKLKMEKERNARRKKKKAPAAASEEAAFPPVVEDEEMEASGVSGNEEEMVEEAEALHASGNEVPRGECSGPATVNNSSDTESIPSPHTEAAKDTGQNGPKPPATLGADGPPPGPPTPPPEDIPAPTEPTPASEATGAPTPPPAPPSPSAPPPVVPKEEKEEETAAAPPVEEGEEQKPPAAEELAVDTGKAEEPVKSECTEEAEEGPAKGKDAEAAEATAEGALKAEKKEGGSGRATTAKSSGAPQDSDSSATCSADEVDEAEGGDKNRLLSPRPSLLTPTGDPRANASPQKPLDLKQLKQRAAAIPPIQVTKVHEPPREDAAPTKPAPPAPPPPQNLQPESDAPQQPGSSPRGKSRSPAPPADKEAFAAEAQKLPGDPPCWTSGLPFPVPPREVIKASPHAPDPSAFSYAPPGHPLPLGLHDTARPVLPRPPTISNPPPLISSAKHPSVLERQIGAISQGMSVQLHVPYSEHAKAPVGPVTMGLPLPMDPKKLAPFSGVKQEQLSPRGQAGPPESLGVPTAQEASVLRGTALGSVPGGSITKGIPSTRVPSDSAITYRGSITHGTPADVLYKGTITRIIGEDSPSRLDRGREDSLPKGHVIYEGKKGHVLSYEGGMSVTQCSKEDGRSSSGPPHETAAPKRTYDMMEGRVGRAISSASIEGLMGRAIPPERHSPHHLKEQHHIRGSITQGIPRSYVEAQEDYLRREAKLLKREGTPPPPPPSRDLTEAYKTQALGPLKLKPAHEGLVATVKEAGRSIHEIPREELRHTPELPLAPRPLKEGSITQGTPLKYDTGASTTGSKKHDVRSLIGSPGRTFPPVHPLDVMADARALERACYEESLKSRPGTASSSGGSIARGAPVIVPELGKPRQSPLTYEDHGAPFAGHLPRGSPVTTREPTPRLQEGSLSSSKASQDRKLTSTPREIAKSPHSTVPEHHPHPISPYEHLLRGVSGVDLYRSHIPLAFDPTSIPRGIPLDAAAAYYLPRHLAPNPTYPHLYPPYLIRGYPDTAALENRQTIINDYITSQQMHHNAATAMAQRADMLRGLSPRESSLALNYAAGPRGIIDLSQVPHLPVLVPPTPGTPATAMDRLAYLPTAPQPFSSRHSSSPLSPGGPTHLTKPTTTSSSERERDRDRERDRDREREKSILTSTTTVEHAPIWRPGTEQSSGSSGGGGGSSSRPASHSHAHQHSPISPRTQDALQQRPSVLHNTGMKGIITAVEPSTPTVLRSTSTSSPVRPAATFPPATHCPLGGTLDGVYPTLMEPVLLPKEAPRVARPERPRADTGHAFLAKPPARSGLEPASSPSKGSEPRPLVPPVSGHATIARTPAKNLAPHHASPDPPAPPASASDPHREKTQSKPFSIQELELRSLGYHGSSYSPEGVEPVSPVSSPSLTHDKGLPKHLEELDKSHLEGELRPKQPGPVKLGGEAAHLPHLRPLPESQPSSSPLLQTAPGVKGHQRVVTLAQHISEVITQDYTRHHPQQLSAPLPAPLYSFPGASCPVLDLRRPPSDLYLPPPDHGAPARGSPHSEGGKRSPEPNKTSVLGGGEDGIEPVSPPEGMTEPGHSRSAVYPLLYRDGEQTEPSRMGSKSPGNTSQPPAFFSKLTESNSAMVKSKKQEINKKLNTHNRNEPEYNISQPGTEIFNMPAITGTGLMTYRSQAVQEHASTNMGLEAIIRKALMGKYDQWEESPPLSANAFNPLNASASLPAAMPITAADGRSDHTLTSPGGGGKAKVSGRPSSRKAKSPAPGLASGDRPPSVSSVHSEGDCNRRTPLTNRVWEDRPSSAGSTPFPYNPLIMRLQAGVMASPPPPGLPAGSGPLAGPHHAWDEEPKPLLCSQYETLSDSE
Description for HL-60: Growth inhibition of human HL60 cells after 72 hrs by XTT assay
Description for HeLa: Growth inhibition of human HeLa cells after 72 hrs by XTT assay
Description for Jurkat: Growth inhibition of human Jurkat cells after 72 hrs by XTT assay
Description for MCF7: Growth inhibition of human MCF7 cells after 72 hrs by XTT assay
Description for in vitro: Growth inhibition of human HEK293 cells after 72 hrs by XTT assay

In general, GI50 refers to the concentration at which growth is held to half of that of the control. High values mean lower sensitivity of the cells, low ones greater sensitivity of the cells. The term IC50 denotes the point on the concentration scale where inhibition reaches its midpoint. For orientation: Ki means the equilibrium dissociation constant of an inhibitor or competing ligand from its target. For `CCC[C@@H]1NC(=O)[C@H](C)NC(=O)C[C@H](CC(C)C)NC(=O)[C@H](Cc2cn(CN(C)C)c3ccccc23)NC1=O`, the concentration for 50% growth inhibition (GI50) in the data set with HeLa is 62 µM; in the data set with MCF7, 47 µM; in the data set with Jurkat it was 8.1 µM; in the data set on HL-60, 2.8 µM. Further, the Ratio IC50 is 200 in data set [1], 40 on Histone deacetylase 2 [4], 40 in [6] and 40 on Histone deacetylase 1 [8]. For the same molecule, the inhibition result in data set [2] is “Dose-dependent effect”; in data set [3], 60%; in [11], 46%. Also, the IC50 in data set [5] was 0.8 µM; at Histone deacetylase 2 [10], 1.4 µM; in data set [12], more than 20 µM; at Histone deacetylase 1 [13] it was 0.68 µM. Also, the Ki in data set [7] was determined as 0.037 µM; on Histone deacetylase 1 [9] it was 0.049 µM; at Histone deacetylase 2 [14], 0.033 µM. This molecule also had a GI50 at 72 h in the data set “in vitro” of 100 µM.
In the case of `CCC(=O)CCCCC[C@@H]1NC(=O)[C@H]2CCCCN2C(=O)[C@H]([C@@H](C)CC)NC(=O)[C@H](Cc2cn(OC)c3ccccc23)NC1=O` [APICIDIN], the GI50 with HeLa turned out to be 1.4 µM; with MCF7 it was 6.8 µM; in the data set with Jurkat it was 0.83 µM; with HL-60, 0.28 µM. The same molecule gave a GI50 at 72 h in the data set “in vitro” of 11 µM.
On to `CCC[C@@H]1NC(=O)[C@H](C)NC(=O)C[C@H](CC(C)C)NC(=O)[C@H](Cc2c[nH]c3ccccc23)NC1=O` (cyclo(A[Nva]W[β3hL])), for which the GI50 in the data set with HeLa came out at 81 µM; in the data set with MCF7, 40 µM; in the data set with Jurkat, 12 µM; in the data set with HL-60 it was 8.2 µM. For the same molecule, the 50% inhibitory concentration (IC50) in data set [5] is 1.4 µM; at Histone deacetylase 2 [10], 1.5 µM; in data set [12] it was more than 20 µM; on Histone deacetylase 1 [13], 0.98 µM. For the same molecule, the inhibition at 72 h, 100 µM in data set [15] turned out to be 33%. The inhibition in [11] is 37%. This molecule also yielded a GI50 at 72 h in the data set “in vitro” of more than 100 µM.
